{
  "source": "patent US20250352518A1",
  "about": "“A BENZIMIDAZOLE COMPOUND WITH ANTIHELMINTHIC ACTIVITY FOR USE IN REVERSING, ARRESTING OR SLOWING DOWN CELLULAR AGEING IN A VERTEBRATE SUBJECT” (RAVAN BIO LIMITED, priority 2022, published 2025)",
  "key": {"[1]": {"experiment": "Canine case studies: biological age by breed-specific telomere length (DNA-My-Dog)", "assay_type": "in vivo", "conditions": "for reduction in biological age: versus chronological age", "experimental": "In 2017, a […] (D.O.B Jan. 5, 2008) female Lhasa Apso/Jack Russell/Shih Tzu cross-breed (confirmed by genetic breed analysis: DNA-My-Dog) with a body mass of 9 Kg, was treated with 0.6 gm/day of 22.2% Fenbendazole (Panacur® granules) which was given orally for 3 consecutive days/week for 1 month and this cycle was repeated every 3rd month giving 4 cycles/annum providing a total of 16×1 month treatment cycles spread over a period of 4 yrs up to the present day.\nSubject C2A's chronological age was verified by microchip implantation date using the Petlog database and, in March 2022, a cheek epithelium swab was sent to DNA-My-Dog for genetic assessment of breed composition and biological age by analysis of breed-specific telomere length. The results, returned on the 30 Mar. 2022, reported a biological age of 3 yrs old. Three more treatment cycles were subsequently administered and a repeat biological age telomere test carried out on the 30 Sep. 2022 which also returned a biological age of 3 yrs old. […] Translating these findings to humans, a 14 yr old Lhasa Apso has an equivalent human age of about 72 whereas a 3 yr old has an equivalent human age of about 28. This indicates a potential reduction in human age of 44 yrs which would equate to a 61% reduction of biological age in humans.\nIn 2017, a 4 yr old Jack Russell/Poodle/Maltese cross-breed (Confirmed by genetic breed analysis: DNA-My-Dog) with a body mass of 9.2 Kg was treated with 1.0 gm/day of 22.2% Fenbendazole Panacur® granules for 3 days per week and 4 days without. The dosing schedule of 3 days with, 4 days without treatment per week was continued for 3 months after which the dose was reduced to 0.6 gm/day of Panacur® and treatment alternated between 1 month with and 1 month without for 19 months providing a total of 11×1 month treatment cycles over the whole time period. After this, treatment was discontinued for 2 years and 5 months up to 12 May 2022 when a cheek swab was taken for analysis of biological age and this was repeated 5 months later on the 30 Sep. 2022.\nThe initial reason for treating this animal was that it had been diagnosed with an anal sac adenocarcinoma and, at the time, it was decided to explore the use of Fenbendazole as an alternative treatment. […] Subject C2B's birth date was May 2014 giving a chronological age of 8 yrs which was verified by microchip implantation date using the Petlog database. Following the outlined treatment with Fenbendazole, in April 2022, a cheek epithelium swab was sent to DNA-My-Dog for assessment of breed composition and biological age by analysis of breed-specific telomere length. The result, returned on the 12 May 2022, reported a biological age of 1 yr old indicating a reduction in biological age of 7 yrs. which is equivalent to ˜90% reduction in biological age. […] After a further gap of 5 months without treatment, on the 30 Sep. […] However, unlike subject C2A, no treatment was given during this period so the most likely explanation is that the efficacy time-limit of the initial treatment has been exceeded."}, "[2]": {"experiment": "Rat 4 month medicated feed study: mortality and appetite", "assay_type": "in vivo, Sprague-Dawley rats", "description": "Seventy-eight Sprague-Dawley rats aged either 16 or 22 months were maintained with daily 12-hour light/dark cycles and allowed constant access to feed and water. The animals were bred and housed at the Cantacuzino National Medico-Military Institute for Research and Development, Bucharest 050096, Romania. These animals were split into 3 separate groups of 26, each containing the same number of younger and older animals, which were then given the following feeds prepared by Altromin Spezialfutter GmbH & Co. for a period of 4 months: • (A) Control maintenance feed plus standard multivitamin supplement (No API's) • (B) Formulation (A) plus 80 mg/Kilo of Fenbendazole. • (C) Formulation (B) plus 12.5 mg/Kilo Tadalafil. A buccal swab was then taken from each animal using an OracollectDNA OCR-100 sampling device (DNA Genotek, Canada). DNA was extracted using a DNeasy® Blood & Tissue Kit (Qiagen UK, Cat No 69505) which was checked for purity and quantified with a QuickDrop Spectrophotometer (Molecular Devices, Model 504 7178). This material was then used to analyse relative telomere length as described in section 1.6 except that the Relative Rat Telomere Length Quantification qPCR Assay Kit (ScienCell Research Labs, Catalog No. R8908) was used. Five consecutive samples from each of the three treatment groups were analysed on each 96 well PCR plate to minimize any inter-plate variability."}, "[3]": {"experiment": "Rat 4 month medicated feed study: relative telomere length in buccal swab DNA (qPCR)", "assay_type": "in vivo, Sprague-Dawley rats", "conditions": "buccal swabs after 4 months feed; control 1.37 (SD=0.38)", "description": "Seventy-eight Sprague-Dawley rats aged either 16 or 22 months were maintained with daily 12-hour light/dark cycles and allowed constant access to feed and water. The animals were bred and housed at the Cantacuzino National Medico-Military Institute for Research and Development, Bucharest 050096, Romania. […] A buccal swab was then taken from each animal using an OracollectDNA OCR-100 sampling device (DNA Genotek, Canada). DNA was extracted using a DNeasy® Blood & Tissue Kit (Qiagen UK, Cat No 69505) which was checked for purity and quantified with a QuickDrop Spectrophotometer (Molecular Devices, Model 504 7178). […] R8908) was used. Five consecutive samples from each of the three treatment groups were analysed on each 96 well PCR plate to minimize any inter-plate variability."}, "[4]": {"conditions": "dog C2A findings translated to equivalent human age"}},
  "data": [
    {"smiles": "COC(=O)Nc1nc2ccc(Sc3ccccc3)cc2[nH]1", "note": "[Fenbendazole, methyl 5-(phenylthio)-2-benzimidazole carbamate]", "values": [
      {"measurement": "potential reduction in human age", "setting": "[1]; [4]", "value": 44, "unit": "yrs"},
      {"measurement": "reduction of biological age in humans", "setting": "[1]; [4]", "value": 61, "unit": "%"},
      {"measurement": "biological age (repeat test)", "setting": "[1]; dog C2A, 30 Sep. 2022, after three more treatment cycles", "value": 3, "unit": "yrs"},
      {"measurement": "biological age", "setting": "[1]; dog C2A, chronological age 14 yrs, result 30 Mar. 2022, 0.6 gm/day Panacur granules 3 days/week, 1 month cycles over 4 yrs", "value": 3, "unit": "yrs"},
      {"measurement": "reduction in biological age", "setting": "[1]; dog C2A", "value": 11, "unit": "yrs"},
      {"measurement": "reduction in biological age", "setting": "[1]; dog C2A, over 4 years", "value": "~80", "unit": "%"},
      {"measurement": "biological age (repeat test)", "setting": "[1]; dog C2B, 30 Sep. 2022, further 5 months without treatment", "value": 3, "unit": "yrs"},
      {"measurement": "biological age", "setting": "[1]; dog C2B, chronological age 8 yrs, result 12 May 2022, 19 months treatment then 2 yrs 5 months without", "value": 1, "unit": "yr"},
      {"measurement": "appetite versus control", "setting": "[2]; 4 months medicated feed", "value": "greater"},
      {"measurement": "surviving animals", "setting": "[2]; after 4 months of medicated feed, groups of 26 rats aged 16 or 22 months, control 18", "value": 23},
      {"measurement": "mortality", "setting": "[2]; after 4 months of medicated feed, control 30.7%", "value": 11.5, "unit": "%"},
      {"measurement": "average telomere length, times that in DNA from a 30 month old comparator", "setting": "[3]", "value": "1.59 (SD=0.48)"}
    ]}
  ]
}
